What all share (assay type): cell-based
Experiment [1] relates to spleen of an apoaequorin transgenic mouse. As to the kind of experiment: Intracellular calcium (aequorin luminescence) in spleen pieces of apoaequorin transgenic mouse. The settings on record: for physiological activity (the activity found in Peptide 1 or Peptide 3): purified samples, method of Example 3. As to the method: (§1) In order to evaluate physiological activities of the peptides prepared in Example 1, the prepared peptides were allowed to act upon organs excised from the living body, and changes in the concentration of an intracellular signal transduction substance in cells constituting the organs were measured.
(§2) In order to measure changes in the concentration of an intracellular signal transduction substance in cells constituting the organs, a transgenic mouse prepared by integrated an apoaequorin gene expression vector into a chromosome was used. Specifically, a female mouse derived from the transgenic mouse disclosed in Reference Example 4 as an individual number 98075-04-6 was used in the test. The transgenic mouse was prepared and reared as an SPF animal in a clean room, and was not contaminated with pathogens including mouse hepatitis virus, Sendai virus, mycoplasma and Tyzzer bacterium.
(§3) Aequorin is a bioluminescent protein complex which is present in the umbrella region of luminescent Aequorea victoria. Aequorin is constituted from its protein moiety apoaequorin, its luminescence substrate coelent razin and molecular oxygen, and emits light by its binding with calcium ion. Since expression of the apoaequorin protein has been confirmed in at least thymus, spleen, abdominal muscle, diaphragm, kidney, crystalline lens, pancreas, fat tissue, liver, skull, blood vessel, ovary, womb and adrenal gland of the transgenic mouse used in the test, it was able to monitor changes in the intracellular calcium ion concentration in these organs with a high sensitivity.
(§4) Organs were prepared from offsprings borne from the female of individual number 98075-04-6 to examine the activities of the peptides produced in Example 1. After the offsprings were killed, the thymus, spleen, abdominal muscle, diaphragm, kidney, crystalline lens, pancreas, fat tissue, liver, skull, blood vessel, ovary, womb and adrenal gland were excised. Each of the excised organs was cut into small cubes of about 1 to 2 mm square in PBS containing 10 units/ml of heparin sodium and thoroughly washed by changing the solution. Next, three pieces of each of the organ samples thus prepared were put into a 5 ml capacity tube (Rohren-Tubes; No. 55.476, manufactured by Sarstedt) which had been charged with RPMI 1640 medium containing 200 μl of 10 μmol/l coelenterazine (manufactured by Molecular Probes), and cultured at 37° C. for 5 hours. Five hours after, various substances shown below dissolved in RPMI 1640 medium were added at 200 μl, and the luminescence was measured just after the addition at 1 second intervals using a luminometer AutoLumat LB953 (manufactured by BERTHOLD).
Organs were prepared from offsprings borne from the female of individual number 98075-04-6 to examine the activities of the peptides produced in Example 1. After the offsprings were killed, the spleen was excised. The excised spleen was cut into small cubes of about 1 to 2 mm square in PBS containing 10 units/ml of heparin sodium and thoroughly washed by changing the solution. Next, three pieces of the prepared spleen sample were put into a 5 ml capacity tube (Rohren-Tubes; No. 55.476, manufactured by Sarstedt) which had been charged with RPMI 1640 medium containing 200 μl of 10 μmol/l coelenterazine (manufactured by Molecular Probes), and cultured at 37° C. for 5 hours. Five hours after, various substances shown below dissolved in RPMI 1640 medium were added at 200 μl, and the luminescence was measured just after the addition at 1 second intervals using a luminometer AutoLumat LB953 (manufactured by BERTHOLD).
RPMI 1640, a peptide prepared in Example 1 (final concentration: 10 nmol/l), a peptide prepared in Example 1 (final concentration: 100 nmol/l), a peptide prepared in Example 1 (final concentration: 1 μmol/l), a peptide prepared in Example 1 (final concentration; 10 μmol/l), ATP (final concentration: 100 μmol/l), A23187 (final concentration: 1 μmol/l) and Triton X-100 (final concentration: 2%) were added in order. […]

The subject of experiment [2] is blood vessel of an apoaequorin transgenic mouse. As to the kind of experiment: Intracellular calcium (aequorin luminescence) in blood vessel pieces of apoaequorin transgenic mouse. The procedure:
as §1, §2, §3, §4

For experiment [3], the system named is thymus of an apoaequorin transgenic mouse. The experiment is described as follows: Intracellular calcium (aequorin luminescence) in thymus pieces of apoaequorin transgenic mouse. The procedure: as §1
In order to measure changes in the concentration of an intracellular signal transduction substance in cells constituting the organs, a transgenic mouse prepared by integrated an apoaequorin gene expression vector into a chromosome was used. Specifically, a female mouse derived from the transgenic mouse disclosed in Reference Example 4 as an individual number 98075-04-6 was used in the test. […]
Aequorin is a bioluminescent protein complex which is present in the umbrella region of luminescent Aequorea victoria. Aequorin is constituted from its protein moiety apoaequorin, its luminescence substrate coelent razin and molecular oxygen, and emits light by its binding with calcium ion. […]
Organs were prepared from offsprings borne from the female of individual number 98075-04-6 to examine the activities of the peptides produced in Example 1. […] Five hours after, various substances shown below dissolved in RPMI 1640 medium were added at 200 μl, and the luminescence was measured just after the addition at 1 second intervals using a luminometer AutoLumat LB953 (manufactured by BERTHOLD).

Experiment [4] relates to thymus, abdominal muscle, diaphragm, kidney, crystalline lens, pancreas, fat tissue, liver, blood vessel, ovary, womb and adrenal gland. As to the kind of experiment: Intracellular calcium (aequorin luminescence) in organs other than the spleen and skull of apoaequorin transgenic mouse.
Description: In order to measure changes in the concentration of an intracellular signal transduction substance in cells constituting the organs, a transgenic mouse prepared by integrated an apoaequorin gene expression vector into a chromosome was used. […] The transgenic mouse was prepared and reared as an SPF animal in a clean room, and was not contaminated with pathogens including mouse hepatitis virus, Sendai virus, mycoplasma and Tyzzer bacterium.
Experiment [5] relates to skull (cranial bone) of an apoaequorin transgenic mouse. The experiment is described as follows: Intracellular calcium (aequorin luminescence) in skull (cranial bone) pieces of apoaequorin transgenic mouse. Particulars: final concentration 10 μmol/l. The procedure: as §1, §2, §3, §4
In experiment [6] the test system is spleen of an apoaequorin transgenic mouse. The experiment is described as follows: Intracellular calcium (aequorin luminescence) in spleen pieces of apoaequorin transgenic mouse. Particulars: final concentration 6 μmol/l.
Setting [7] is: 10 nmol/l, 100 nmol/l, 1 μmol/l, 10 μmol/l added in order.

These results are taken from patent US20040081972A1, “Novel physiologically active peptide and use thereof” (priority 2000, published 2004).

[ ]: non-standard residue; d: D form. LYB = not defined here

Consider `Nc1ncnc2c1ncn2[C@@H]1O[C@H](COP(=O)(O)OP(=O)(O)OP(=O)(O)O)[C@@H](O)[C@H]1O` [ATP], for which the “luminescence (intracellular calcium increase)” value is “Strong luminescence” in experiment [1] (final concentration 100 μmol/l), “Strong luminescence” in experiment [2] (final concentration 100 μmol/l), “Strong luminescence” in experiment [3] (final concentration 100 μmol/l) and “luminescence was observed” in experiment [4] (final concentration 100 μmol/l).
`CNC[C@H](O)c1cccc(O)c1` [phenylephrine]: the “luminescence (intracellular calcium increase)” value in experiment [2] (final concentration 20 μmol/l) and in experiment [3] (final concentration 20 μmol/l) was “Strong luminescence” throughout.
Take `CNc1ccc2oc(C[C@H]3O[C@@]4(CC[C@H]3C)O[C@H]([C@H](C)C(=O)c3ccc[nH]3)[C@H](C)C[C@H]4C)nc2c1C(=O)O` [Peptide A23187, A23187]: in experiment [4] (final concentration 1 μmol/l), the “luminescence (intracellular calcium increase)” value is listed as “luminescence was observed”.
For the molecule “H-Met-Leu-Glu-Lys-Leu-Gly-Val-Pro-Lys-Thr-His-Leu-Glu-Leu-Lys-Lys-Leu-Ile-Gly-Glu-Val-Ser-Ser-Gly-Ser-Gly-Glu-Thr-Phe-Ser-Tyr-Pro-Asp-Phe-Leu-Arg-Met-Met-Leu-NH2 (H-MLEKLGVPKTHLELKKLIGEVSSGSGETFSYPDFLRMML-NH2) [Peptide 1]”, in experiment [1] (setting [7]), the “concentration at which luminescence accompanied by the increased intracellular calcium was observed” value stood at 10 µmol/L. Besides, the “luminescence (intracellular calcium increase)” value in experiment [1] (final concentration 10 μmol/l), in experiment [5] and in experiment [6] was “Strong luminescence” each time.
As to “H-Val-Thr-Pro-His-Thr-Lys-Leu-Val-Tyr-Ser-Glu-Ser-Val-Ile-Met-Asn-Met-Ser-Lys-Gly-Glu-Gly-Leu-Met-Glu-Ile-Lys-Leu-Met-Asp-Asp-Met-Met-Thr-Phe-Arg-Lys-val-Gly-NH2 (H-VTPHTKLVYSESVIMNMSKGEGLMEIKLMDDMMTFRK[dV]G-NH2; SMILES CC[C@H](C)[C@H](NC(=O)[C@H](CCC(=O)O)NC(=O)[C@H](CCSC)NC(=O)[C@H](CC(C)C)NC(=O)CNC(=O)[C@H](CCC(=O)O)NC(=O)CNC(=O)[C@H](CCCCN)NC(=O)[C@H](CO)NC(=O)[C@H](CCSC)NC(=O)[C@H](CC(N)=O)NC(=O)[C@H](CCSC)NC(=O)[C@@H](NC(=O)[C@@H](NC(=O)[C@H](CO)NC(=O)[C@H](CCC(=O)O)NC(=O)[C@H](CO)NC(=O)[C@H](Cc1ccc(O)cc1)NC(=O)[C@@H](NC(=O)[C@H](CC(C)C)NC(=O)[C@H](CCCCN)NC(=O)[C@@H](NC(=O)[C@H](Cc1c[nH]cn1)NC(=O)[C@@H]1CCCN1C(=O)[C@@H](NC(=O)[C@@H](N)C(C)C)[C@@H](C)O)[C@@H](C)O)C(C)C)C(C)C)[C@@H](C)CC)C(=O)N[C@@H](CCCCN)C(=O)N[C@@H](CC(C)C)C(=O)N[C@@H](CCSC)C(=O)N[C@@H](CC(=O)O)C(=O)N[C@@H](CC(=O)O)C(=O)N[C@@H](CCSC)C(=O)N[C@@H](CCSC)C(=O)N[C@H](C(=O)N[C@@H](Cc1ccccc1)C(=O)N[C@@H](CCCNC(=N)N)C(=O)N[C@@H](CCCCN)C(=O)N[C@@H](C(=O)NCC(N)=O)C(C)C)[C@@H](C)O) [Peptide 3S]”, the “luminescence (intracellular calcium increase)” value in experiment [1] (final concentration 10 μmol/l) and in experiment [5] was “not detected” each time.
Regarding “H-Met-Leu-Glu-Lys-Leu-Gly-Val-Pro-Lys-Thr-His-Leu-Glu-Leu-Lys-Arg-Leu-Ile-Arg-Glu-Val-Ser-Ser-Gly-Ser-Glu-Glu-Thr-Phe-Ser-Tyr-Ser-Asp-Phe-Leu-Arg-Met-Met-Leu-NH2 (H-MLEKLGVPKTHLELKRLIREVSSGSEETFSYSDFLRMML-NH2) [Peptide 2]”, the “final concentration from which concentration-dependent luminescence was observed” value in experiment [1] (setting [7]) came to 100 nmol/L. Also, the “luminescence (intracellular calcium increase)” value in experiment [1] (final concentration 10 μmol/l) and in experiment [5] was “Strong luminescence” in each case.
Regarding `CC[C@H](C)[C@H](NC(=O)[C@H](CC(=O)O)NC(=O)[C@H](CC(C)C)NC(=O)[C@H](Cc1c[nH]cn1)NC(=O)[C@@H]1CSSC[C@H](N)C(=O)N[C@@H](CO)C(=O)N[C@H]2CSSC[C@H](NC(=O)[C@H](CCC(=O)O)NC(=O)[C@H](CCCCN)NC(=O)[C@H](CC(=O)O)NC(=O)[C@H](CCSC)NC(=O)[C@H](CC(C)C)NC(=O)[C@H](CO)NC(=O)[C@H](CO)NC2=O)C(=O)N[C@@H](C(C)C)C(=O)N[C@@H](Cc2ccc(O)cc2)C(=O)N[C@@H](Cc2ccccc2)C(=O)N1)C(=O)N[C@H](C(=O)N[C@@H](Cc1c[nH]c2ccccc12)C(=O)O)[C@@H](C)CC` [endothelin], the “luminescence (intracellular calcium increase)” value in experiment [2] (final concentration 10 nmol/l) was “Strong luminescence”.
Take “H-Leu-Ile-Arg-Glu-Val-Ser-Ser-Gly-Ser-Glu-Glu-Thr-Phe-Ser-Tyr-Ser-Asp-Phe-Leu-Arg-Met-Met-Leu-NH2 (H-LIREVSSGSEETFSYSDFLRMML-NH2) [Peptide 2 short]”: the “final concentration from which concentration-dependent luminescence was observed” value in experiment [1] (setting [7]) was 1000 nmol/L. In addition, the “activity maintained relative to the activity of Peptide 2” value in experiment [1] (fraction of Peptide 2 activity) is 1/10.
For the molecule “H-Leu-Ser-Pro-His-Thr-Lys-Leu-Ser-Tyr-Arg-Glu-Glu-Val-Phe-Leu-Arg-Leu-Ser-Lys-Ser-Glu-Gly-Leu-Met-Glu-Ile-LYB-Leu-Met-Glu-Asp-Leu-Met-val-Phe-Ser-Arg-Thr-Gly-NH2 (H-LSPHTKLSYREEVFLRLSKSEGLMEI[LYB]LMEDLM[dV]FSRTG-NH2; reading uncertain) [Peptide 2S]”, the “luminescence (intracellular calcium increase)” value in experiment [1] (final concentration 10 μmol/l) and in experiment [5] was “not detected” each time.
Regarding `C[N+](C)(C)CCOC(N)=O` [carbachol], in experiment [2] (final concentration 10 μmol/l), the “luminescence (intracellular calcium increase)” value is “Strong luminescenc”.
For the molecule Triton X-100, the luminescence entry in experiment [4] (final concentration 2%) is given as “luminescence was observed”.
On to “H-Leu-Ser-Pro-His-Thr-Lys-Leu-Ser-Tyr-Gly-Glu-Gly-Val-Phe-Leu-Arg-Leu-Ser-Lys-Ser-Glu-Gly-Leu-Met-Glu-Ile-Lys-Leu-Met-Glu-Asp-Leu-Met-Val-Phe-Pro-Lys-Thr-Gly-NH2 (H-LSPHTKLSYGEGVFLRLSKSEGLMEIKLMEDLMVFPKTG-NH2) [Peptide 1S]”, for which the “luminescence (intracellular calcium increase)” value in experiment [1] (final concentration 10 μmol/l) and in experiment [5] was “not detected” each time.

B1: AIF-2: precursor protein comprising the amino acid sequence represented by SEQ ID NO:5; purified after FXa cleavage of MBP fusion (protein, listed as Homo sapiens)
chain: MSGELSNRFQGGKAFGLLKARQERRLAEINRELLCDQKYSDEENLPEKLTAFKEKYMEFDLNNEGEIDLMSLKRMMEKLGVPKTHLEMKKMISEVTGGVSDTISYRDFVNMMLGKRSAVLKLVMMFEGKANESSPKPVGPPPERDIASLP
In the case of B1, the “physiological activity (the activity found in Peptide 1 or Peptide 3)” value in experiment [1] was “not observed”.

B2: AIF-1: precursor protein comprising the amino acid sequence represented by SEQ ID NO:1; purified after FXa cleavage of MBP fusion (protein, listed as Homo sapiens)
chain: MSQTRDLQGGKAFGLLKAQQEERLDEINKQFLDDPKYSSDEDLPSKLEGFKEKYMEFDLNGNGDIDIMSLKRMLEKLGVPKTHLELKKLIGEVSSGSGETFSYPDFLRMMLGKRSAILKMILMYEEKAREKEKPTGPPAKKAISELP
On to B2, for which the “physiological activity (the activity found in Peptide 1 or Peptide 3)” value in experiment [1] is “not observed”.
